Data: patent US8846671B2, “Heterocyclic alkynyl benzene compounds and medical compositions and uses thereof” (Guangzhou Institute of Biomedicine and Health, Chinese …, priority 2010, dated 2014)
“Also recorded” adds a separate entry of the source. Structures can show the parent of a compound that is named as a salt. Where two headings read alike, the source gives them in different places.

Experiments:
[1] = test system: cells carrying c-KIT D816V; details: cited from earlier work
[2] = molecular target: BAF3-T315I cells (Ba/F3 cell line stably expressing BCR/ABL T315I) (Homo sapiens, UniProt P00519, T315I, cells depend on it); test: tumor cell proliferation, MTT or CCK8 assay, 72 h incubation; format: cell-based, mice
[3] = test system: K562R cells (imatinib-resistant cell line); test: as above; format: cell-based; details: Homo sapiens, K-562R, read-out: IC50 on tumor cell proliferation, K562R cells
U937 Cell line = test: as above; format: cell-based; details: Homo sapiens, read-out: IC50 on tumor cell proliferation, U937
In short: (§1)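 Leukemia cell lines were exposed to compounds at 1×10^−10˜1×10^−5M for 72 h. Proliferation was read by MTT (570 nm) or CCK8 (450/650 nm) after a further 4 h incubation. IC50 values were calculated from inhibition of proliferation.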

[4] = test system: MOLT-4 (Human acute lymphoblastic leukemia cell line); test: as above; format: cell-based; details: MOLT-4, 72 h, read-out: IC50 on tumor cell proliferation, MOLT-4
In short: as §1

[5] = test system: MEG-01 (Human megakaryoblastic leukaemia cell line); test: as above; format: cell-based; details: MEG-01, 72 h, read-out: IC50 on tumor cell proliferation, MEG-01
In short: as §1

[6] = test system: K562 (human chronic myelogenous leukemia cell line); test: as above; format: cell-based; details: K562, 72 h, read-out: IC50 on tumor cell proliferation, K562
In short: as §1

[7] = test system: L78 (Lung cancer cell line); test: as above; format: cell-based; details: Homo sapiens, read-out: IC50 on tumor cell proliferation, L78
[8] = Pharmacokinetics and bioavailability in rats; format: in vivo; details: SD rats; corresponding pharmaceutical acceptable salt forms
In short: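 Rats dosed, heparinized blood sampled at set times, plasma stored at -20 °C, acetonitrile-precipitated and analyzed by HPLC-MS. Compartmental and non-compartmental parameters derived; bioavailability from AUC.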

BCR-ABL T315I mutant = details: cited from earlier work
[9] = read-out: IC50 on tumor cell proliferation, BAF3-T315I cells; Ba/F3 expressing BCR/ABL T315I, 72 h, Table 1

SMILES | GI50 [2, 9] [nM] | IC50 [3] [nM] | IC50 (U937 Cell line; U-937, 72 h) [nM] | IC50 [4] [nM] | IC50 [5] [nM] | IC50 [6] [nM] | IC50 [7] [nM] | pharmacokinetics parameters, overall judgement [8] | effect on cells with c-KIT D816V point mutation [1] | further results
Cc1ccc(NC(=O)c2ccc(CN3CCN(C)CC3)cc2)cc1Nc1nccc(-c2cccnc2)n1 [STI571, Imatinib mesylate] | – | – | – | – | – | – | – | – | cannot inhibit proliferation; also recorded: no effect | –
Cc1cn(-c2cc(NC(=O)c3ccc(C)c(C#Cc4cnc(NC5CC5)nc4)c3)cc(C(F)(F)F)c2)cn1 [D747, 3-(2-(2-(cyclopropylamino)pyrimidin-5-yl)ethynyl)-4-methyl-N-(3-(4-methyl-1H-imidazol-1-yl)-5-(trifluoromethyl)phenyl)benzamide] | 99.7 | 96 | 11500 | > 10000 | 7540 | 2.6 | 10600 | adequate pharmacokinetics parameters | – | –
Cc1cn(-c2cc(NC(=O)c3ccc(C)c(Nc4nccc(-c5cccnc5)n4)c3)cc(C(F)(F)F)c2)cn1 [AMN107, Nilotinib] | – | – | – | – | – | – | – | – | no effect | effect on BCR-ABL T315I mutant (BCR-ABL T315I mutant): neither AMN107 nor BMS-354825 have effect
Cc1cn(-c2cc(NC(=O)c3ccc(C)c(C#Cc4cnc(NC(C)C)nc4)c3)cc(C(F)(F)F)c2)cn1 [D752, 3-(2-(2-(isopropylamino)pyrimidin-5-yl)ethynyl)-4-methyl-N-(3-(4-methyl-1H-imidazol-1-yl)-5-(trifluoromethyl)phenyl)benzamide] | 1030 | 840 | 8990 | 12700 | 22600 | 3.48 | > 10000 | adequate pharmacokinetics parameters | – | –

Second part, led by results:

GI50 [2, 9] [nM] | IC50 [3] [nM] | IC50 (U937 Cell line; U-937, 72 h) [nM] | IC50 [4] [nM] | IC50 [5] [nM] | IC50 [6] [nM] | IC50 [7] [nM] | pharmacokinetics parameters, overall judgement [8] | SMILES | effect on cells with c-KIT D816V point mutation [1] | further results
61 | 220 | > 10000 | > 10000 | > 10000 | 7.59 | 11800 | adequate pharmacokinetics parameters | CCNc1ncc(C#Cc2cc(C(=O)Nc3cc(-n4cnc(C)c4)cc(C(F)(F)F)c3)ccc2C)cn1 [D755, 3-(2-(2-(ethylamino)pyrimidin-5-yl)ethynyl)-4-methyl-N-(3-(4-methyl-1H-imidazol-1-yl)-5-(trifluoromethyl)phenyl)benzamide] | – | –
– | – | – | – | – | – | – | adequate pharmacokinetics parameters | Cc1cn(-c2cc(NC(=O)c3ccc(C)c(C#Cc4cnc5[nH]ncc5c4)c3)cc(C(F)(F)F)c2)cn1 [D767, 3-(2-(1H-pyrazolo[3,4-b]pyridin-5-yl)ethynyl)-4-methyl-N-(3-(4-methyl-1H-imidazol-1-yl)-5-(trifluoromethyl)phenyl)benzamide] | – | GI50 ([2]; Ba/F3 expressing BCR/ABL T315I, 72 h, Table 1; read-out: IC50 on tumor cell proliferation, BAF3-T315I cells): 4.24 nM; IC50 ([3]; imatinib-resistant K562R): 89 nM; IC50 (U937 Cell line; U-937, 72 h, MTT or CCK8, nM): > 100 nM; IC50 ([4]; MTT or CCK8, nM): > 100 nM; IC50 ([5]; MTT or CCK8, nM): > 100 nM; IC50 ([6]; MTT or CCK8, nM): 0.208 nM; IC50 ([7]; MTT or CCK8, nM): 11.8 nM
